# Laboratory results published in US9072746B2, “Method for enhancing learning and memory impaired by neurodegenerative disorders and compounds and compositions for effecting the same” (The Board of Trustees of the Leland Stanford Junior …, priority 2010, dated 2015).
# Entries after “also recorded” stand apart in the source; their conditions may differ.
# Assays:
# Assay type in all cases: in vivo
# male Ts65Dn mice [1] = test: Contextual fear conditioning; settings: for effect on memory retrieval deficit in contextual fear conditioning: xamoterol 3 mg/kg s.c. one hour before testing
# Method: (§1) Contextual and Cued fear conditioning was conducted for evaluation of fear-dependent learning and retrieval in the study. The test was performed using chambers from Coulbourn Instruments (Whitehall, Pa.). On the first day, the animals were placed in a chamber (Context A) for 3 min for baseline recording, followed by 5 tone-shock pairings. The shock (0.5 mA, 2 sec) was delivered following the tone (70 dB, 2 kHz, 20 sec) in each conditional/unconditional stimulus pairing. On the second day a novel chamber (Context B; new room, new olfactory environment, texture of floor, blue plastic inserts for walls, extra source of blue light, and visual cues) was used for cued testing. Three tones without shocks were presented to animals during a 3 min testing period following a 3 min pre-tone period. On the last day of the experiment, the mice were placed in Context A for 5 min without any conditional and unconditional stimulus {modified from the method described by (Saxe et al., 2006)}. Freezing was defined as the complete lack of motion for a minimum of 0.75 second as measured by FreezeFrame software (Actimetrics, Evanston, Ill.). The percent of freezing in each period was reported. For the startle response control test, an acoustic startle reflex apparatus (Med Associates Inc., St. Albans, Vt.) was used. The subjects were acclimated to the animal holder in the startle box for a total of 15 min over 3 consecutive-days prior to the experiment. The animals were exposed to 25 different trials with 10-20 second randomly variable inter-trial intervals. Five different intensities of startle pulses, 0, 90, 100, 110, and 120 dB, were randomly used, and each animal was randomly exposed 5 times to each intensity of the startle pulse. The duration of each startle pulse was 40 ms and the peak amplitude of the startle response in each trial was recorded for analysis. The holding cage on the apparatus was cleaned with 10% alcohol between each animal. […] In this part of the study, activity chamber and three cognitive tests, including T-maze spontaneous alternation, contextual fear conditioning (CFC), and novel object recognition were performed. In T-maze spontaneous alternation and contextual fear conditioning, both Ts65Dn and 2N male mice were divided into three treatment groups including normal saline (Vehicle), xamoterol, and betaxolol plus xamoterol groups. In the novel object recognition test, both Ts65Dn and 2N male mice were divided into two treatment groups, normal saline and xamoterol. The T-maze was performed exactly as previously described. […] On the first day (training day), animals were placed in the fear conditioning chamber, and after a 3-minute pre-shock period, they were exposed to 5 shocks (2 s, 0.5 mA,) with inter-trial intervals of 80 seconds and no tone. On the second day, the animals first received xamoterol, xamoterol plus betaxolol, or saline injection, and one hour later, they were placed in the same chamber for 5 minutes. Similar to the previous description of fear conditioning, freezing was defined as the complete lack of motion for a minimum of o.75 second. The Novel Object Recognition task is conducted in an open field arena (40 cm×40 cm). Mice were habituated in the testing room for 1 hour followed by 5 minutes habituation inside the arena without any objects. On 4th day animals were introduced 3 times to arena with 3 identical subjects for 10 minutes with 3 minutes inter trial intervals. On 5th day (24 hours after trainings) one of the objects replaced by a novel one and the time sniffing of each object were used for analysis. For testing the role of β1 adrenergic system, xamoterol and betaxolol (Tocris Bioscience, Ellisville, Mo.) were injected subcutaneously using 10 ml/kg normal saline as vehicle. Xamoterol, (3 mg/kg) was given one hour before testing and betaxolol (1 mg/kg) was given 30 minutes before testing.
# male 2N mice [2] = test: Contextual fear conditioning; settings: xamoterol 3 mg/kg s.c. 1 h, betaxolol 1 mg/kg s.c. 30 min before testing
# Method: as §1
# male Ts65Dn mice [3] = test: Novel object recognition; settings: xamoterol 3 mg/kg s.c.
# Method: (§2) In this part of the study, activity chamber and three cognitive tests, including T-maze spontaneous alternation, contextual fear conditioning (CFC), and novel object recognition were performed. In T-maze spontaneous alternation and contextual fear conditioning, both Ts65Dn and 2N male mice were divided into three treatment groups including normal saline (Vehicle), xamoterol, and betaxolol plus xamoterol groups. In the novel object recognition test, both Ts65Dn and 2N male mice were divided into two treatment groups, normal saline and xamoterol. The T-maze was performed exactly as previously described. […] On the first day (training day), animals were placed in the fear conditioning chamber, and after a 3-minute pre-shock period, they were exposed to 5 shocks (2 s, 0.5 mA,) with inter-trial intervals of 80 seconds and no tone. On the second day, the animals first received xamoterol, xamoterol plus betaxolol, or saline injection, and one hour later, they were placed in the same chamber for 5 minutes. Similar to the previous description of fear conditioning, freezing was defined as the complete lack of motion for a minimum of o.75 second. The Novel Object Recognition task is conducted in an open field arena (40 cm×40 cm). Mice were habituated in the testing room for 1 hour followed by 5 minutes habituation inside the arena without any objects. On 4th day animals were introduced 3 times to arena with 3 identical subjects for 10 minutes with 3 minutes inter trial intervals. On 5th day (24 hours after trainings) one of the objects replaced by a novel one and the time sniffing of each object were used for analysis. For testing the role of β1 adrenergic system, xamoterol and betaxolol (Tocris Bioscience, Ellisville, Mo.) were injected subcutaneously using 10 ml/kg normal saline as vehicle. Xamoterol, (3 mg/kg) was given one hour before testing and betaxolol (1 mg/kg) was given 30 minutes before testing.
# male 2N mice [4] = test: Novel object recognition; settings: xamoterol 3 mg/kg s.c.
# Method: as §2
# [5] = Plasma and brain sample analysis after subcutaneous injection (FIG. 10C, D); settings: after subcutaneous injection of 3 mg/kg
# Method: FIG. 10 Xamoterol improves the memory retrieval dose-dependently by interaction with the adrenergic receptors in central nervous system. […] In all experiments xamoterol 3 mg/kg, atenolol 3 mg/kg, and betaxolol 1 mg/kg were injected subcutaneously. […] Results are shown as mean+SEM (ns=not significant, *=p<0.05, and **=p<0.01).
smiles,measurement,setting,value
O=C(NCCNCC(O)COc1ccc(O)cc1)N1CCOCC1 (centres unmarked) [xamoterol],"% Freshing in Tone-cued Fear Conditioning, Mean ± SEM","male Ts65Dn mice [1]; xamoterol 3 mg/kg s.c. 1 h, betaxolol 1 mg/kg s.c. 30 min before testing",45.36 ± 12.40%
same,effect on memory retrieval deficit in contextual fear conditioning,male Ts65Dn mice [1],completely rescue
same,effect on memory retrieval deficit in contextual fear conditioning,male Ts65Dn mice [1]; listed as Xamoterol,rescued; also recorded: improved
same,effect on memory retrieval deficit in contextual fear conditioning,male Ts65Dn mice [1]; listed as Xamoterole,Xamoterole rescues the deficit in
same,"% Freshing in Tone-cued Fear Conditioning, Mean ± SEM",male 2N mice [2],38.43 ± 8.26%
same,"% of Total Investigation in Novel Object Recognition, Mean ± SEM",male Ts65Dn mice [3],73.6 ± 4.2%
same,effect on novel object recognition deficit,male Ts65Dn mice [3],completely rescue; also recorded: corrected
same,effect on novel object recognition deficit,male Ts65Dn mice [3]; listed as Xamoterol,could correct
same,effect on novel object recognition performance,male 2N mice [4]; 2N mice,had no effect
same,"% of Total Investigation in Novel Object Recognition, Mean ± SEM",male 2N mice [4]; male 2N mice,78.6 ± 2.6%
same,access to blood and brain (plasma and brain samples),[5],can get access to blood and brain
